Key:
Dx5 cells [1] = details: cited from earlier work
[2] = system: ZR-75 (breast cancer) cell line; test: cells; details: ZR75, 48 h
Protocol: Cells and Transfections. H23 (non-small cell lung cancer) and ZR-75 (breast cancer) cell lines were purchased from ATCC. The Bcl-2 expression vector was provided by Fred Hutchinson Cancer Research Center, Seattle, Wash. MES-SA and Dx5 cell lines were provided by Branimir Sikic (Stanford University). Cells were cultured in the appropriate medium with 10% FCS supplemented with L-glutamine, penicillin and streptomycin. To examine the effect of Bcl-2 on cell survival, the Bcl-2 expression vector or the vector alone was co-transfected with a β galactosidase expression vector (Invitrogen, Carlsbad, Calif.) at a 5:1 ratio using lipofectamine plus (GIBCO BRL, Gaithersburg, Md.) into Dx5 cells. After 36 h cells were stained with 5-bromo4-chloro-3-indolyl […]-D-galactopyranoside (X-gal). Cell survival was calculated as number of total cells-blue cells/total number of cells in a 90 mm^2 area from duplicate plates and expressed as the mean ±S.D.
(§1) Cell death reagents and assays. Cell viability was measured by an MTT assay as recently described (Lee et al. (1999) J. Biol. Chem. 274:13451-13455. z-VAD-fluoromethylketone (z-VAD.fmk) was obtained from Alexis Biochemicals, San Diego, Calif. The effect of z-VAD.fmk on cell viability was analyzed by annexin and propidium iodide staining followed by FACS analysis according to the manufacturer's protocol (Clontech Laboratories, Palo Alto, Calif.). The analysis of apoptosis in histologic sections was done by terminal deoxynucleotidyl transferase (TdT)-mediated d-UTP nick end labeling (TUNEL) of slides from paraffin sections of day 3 tumors harvested from the mice 24 h after the second of two daily treatments with PG490-88 or saline. TUNEL staining was done according to the manufacturer's protocol (Boehringer Mannheim, Indianapolis, Ind.) and then the histology slides were counterstained with methyl green. DNA was isolated from cells for analysis of internucleosomal DNA laddering followed by agarose gel electrophoresis and ethidium bromide staining.
In FIG. 1A, ZR-75 (breast cancer), H23 (non-small cell lung cancer) and Dx5 (MDR uterine sarcoma) cell lines were treated with PG490 at dosages shown and harvested 48 h later for analysis of cell viability by an MTT assay. Data is the mean of three experiments ±S.D. In FIG. 1B, DNA was isolated from untreated or PG490-treated cells 16 h after the addition of PG490 followed by agarose gel electrophoresis and ethidium bromide staining.

Dx5 cells [3] = test: Cell viability by annexin and propidium iodide staining/FACS with z-VAD.fmk, Dx5 cells; details: Homo sapiens, read-out: cell viability in PG490-treated Dx5 cells
Protocol: as §1

p53 mRNA = p53 mRNA by Northern blot in HT1080 cells; type: cell-based, human
Protocol: Northern Blot Analysis. RNA was prepared from HT1080 cells using RNeasy Mini Kit from Qiagen Inc. (Valencia, Calif.). cDNAs for Northern blot analysis for p21 and p53 were prepared using RT-PCR with […] of total RNA. The following primer pairs were used: p53, (SEQ ID NO:11) 5′-[…]-3′ and (SEQ ID NO:12) 5′-[…]-3′; p21, (SEQ ID NO:13) 5′-[…]-3′ and (SEQ ID NO:14) 5′-[…]-3′; and glyceraldehyde-3-phosphate dehydrogenase, (SEQ ID NO:15) 5′-[…]-3′ and 5′-(SEQ ID NO:16) […]-3′.

[4] = room temperature
Protocol: Stock solutions of PG490-88 (1 mg/ml) were prepared by dissolution in 0.9% NaCl and sterilized by microfiltration using 0.2 μm pore size filters (Supor Acrodisc 25, Gelman Sciences, Ann Arbor, Mich.). The PG490-88 stock solutions were diluted in 0.9% NaCl for IP administration.

H23 human tumor cells = system: H23 human tumor cells
Protocol: as §1
Nude mouse xenograft model. Female NCr nude mice were purchased from Taconic, Germantown, N.Y., and were generally 20-24 grams when used. Mice were kept in autoclaved filter-top microisolator cages with autoclaved water and sterile food ad lib. The cages were maintained in an isolator unit providing filtered air (Lab Products, Inc., Maywood, N.J.). Tumor cells were grown and harvested as described above. NCr nude mice were injected intradermally with 5×10^6 tumor cells. In some experiments, treatment was initiated on the day of tumor cell implantation. […] Mice were treated IP daily for 5 days per week.
H23 tumor cells were implanted intradermally in nude mice. When the tumors reached approximately 100 mm^3, daily IP treatment with PG490-88 was initiated. […] The data in FIG. 3 represents the measurement of H23 tumor volume on day 14 after the initiation of treatment. Nude mice bearing xenografts of H23 human tumor cells were treated daily as shown. The data represent the means and the standard errors of the means of the tumor volumes as percent of the day 0 tumor volumes for each animal measured day 3, 6, 10 and 14 days after the initiation of treatment. There were 5 mice per group.

[5] = system: HT-29 human colon cancer cell line tumors; test: Nude mouse xenograft, established HT-29 colon cancer tumors; type: in vivo, nude mice
Protocol: HT-29 tumor cells grown in tissue culture were harvested and implanted intradermally on the backs of nude mice. Tumor size was monitored by measuring the dimensions of each tumor and calculating tumor volume with a formula. […] PG490-88 treatment at 0.25 mg/kg was administered daily i.p. 5 days per week for 2 weeks. Navelbine at 10 mg/kg was given i.v. on days 0 and 7. Mice in the combination treatment group received PG490-88 i.p. and Navelbine i.v. at the appropriate times. The treatments were given to mice at 100 μl per 10 g of mouse body weight. Tumor dimensions were measured periodically for calculation of tumor volumes. […] The data are presented as mean percent change in tumor volume from day 0 for each treatment group. Toxicity of the treatment was monitored by weighing the mice daily 5 days per week. In FIG. 8, a comparison is provided for tumor volumes on Days 0 and 14. Tumor dimensions were measured periodically for calculation of tumor volumes, and the final determinations were made on day 14.

COc1cccc2c1C(=O)c1c(O)c3c(c(O)c1C2=O)C[C@@](O)(C(=O)CO)C[C@@H]3O[C@H]1C[C@H](N)[C@H](O)[C@H](C)O1 [doxorubicin, reference compound]
fold more resistant than the MES-SA parent cell line (Dx5 cells [1]): 100 fold

CC(C)[C@]12O[C@H]1[C@@H]1O[C@]13[C@]1(O[C@H]1C[C@H]1C4=C(CC[C@@]13C)C(=O)OC4)[C@@H]2O [PG490, triptolide]
cytotoxicity at 0.01 µg/mL ([2]; read-out: decrease in cell viability): 24% | cytotoxicity at 0.02 µg/mL ([2]; read-out: reduction of cell viability): > 80% | viability at 0.02 µg/mL (Dx5 cells [3]): 15% | level of p53 mRNA (p53 mRNA): not affected

CC(C)[C@]12O[C@H]1[C@@H]1O[C@]13[C@]1(O[C@H]1C[C@H]1C4=C(CC[C@@]13C)C(=O)OC4)[C@@H]2OC(=O)CCC(=O)[O-].[Na+] [PG490-88, 14-succinyl triptolide sodium salt]
half-life in mouse serum [4]: < 5 min | decrease of mean tumor size from the initial value at day 0 (H23 human tumor cells; PG490-88 0.75 mg/kg/day, day 14): 61% | decrease of tumor size relative to the day 14 vehicle control (H23 human tumor cells; PG490-88 alone 0.75 mg/kg/day, combination PG490-88 0.25 mg/kg/day plus taxol 10 mg/kg/day): 97% | inhibition of tumor growth (H23 human tumor cells; daily IP PG490-88): inhibited tumor growth in a dose-dependent manner | TUNEL staining of tumor sections (H23 human tumor cells; day 3 tumors, compared to saline-treated animals): many TUNEL-positive cells | tumor volume as % of the vehicle control (H23 human tumor cells; day 14, PG490-88 0.25 mg/kg/day, taxol 10 mg/kg/day, IP): 21% | increase in tumor volume from day 0 by day 14 ([5]; PG490-88 0.25 mg/kg i.p. 5 days per week for 2 weeks, Navelbine 10 mg/kg i.v. days 0 and 7): 238% | Day 0 Tumor Volume (mm^3) Mean ([5]; baseline at grouping, before treatment): 109 mm^3

From US6599499B1, “Uses of diterpenoid triepoxides as an anti-proliferative agent” (priority 1999, dated 2003)
